Results as given in patent publication US7230074B2, “Inhibitors of dipeptidyl-aminopeptidase type IV” (Trustees of Tufts College, priority 1991, dated 2007).

Columns and labels:
[1] = Decomposition in aqueous solution; assay type: physicochemical; details: neutral pH, room temperature (20–25° C.)
From the text: . Many dipeptide derivatives with a free N terminal amino group and a functional group (such as a difluoromethyl ketone) on the C-terminus are similarly unstable due to intramolecular reaction. A six member ring is formed between the amino and C-terminal functional groups and undergoes subsequent further reaction, such as hydrolysis.

HIV-1-IIIB in A3.5 cells = assay: HIV-1 replication in A3.5 cells (p24 antigen ELISA); assay type: cell-based
From the text: […]. The rational for these experiments comes from the reported connection between T-cell activation, IL-2 production, and HIV replication and expression of HIV proteins.
Cell lines used in the present studies include A3.5 cells (a monocyte cell line which is CD4+, HLA−DR+, and CD3—) and peripheral blood mononuclear cells (PBMC). The A3.5 cells grow continuously in culture without exogenous growth factors. PBMC cells require IL-2 for propagation in vitro. Cells were infected with HIV-1-IIIB at a multiplicity of infection (moi) of 5×10^−4 tissue culture infectious dose 50 (TCID50)/cell for both the A3.5 cells and the PMBC cells. Dilutions of inhibitor were made in RPMI-1640 and subsequently passed through a 0.22 um filter. At the start of each experiment, 1×10^6 cells/well, in 24-well plates, were infected with HIV-1-IIIB at the moi indicated above. Inhibitor was added simultaneously at the appropriate dilutions. All cultures were maintained at 5% CO2 and 37° C. in RPMI-1640 supplemented with penicillin, streptomycin, L-glutamine, hepes buffer, and 20% heat-inactivated fetal calf serum. Cell counts and viability were determined by trypan blue exclusion. Culture supernatants were harvested and assayed for HIV-1 p24 antigen by ELISA (NEN-DuPont, Boston, Mass.). Fresh media and inhibitor were added on each day. […]

[2] = biological target: T1, DP-IV isolated from porcine kidneys (Sus scrofa, UniProt P22411); assay: DP-IV inhibition, hydrolysis of Ala-Pro-p-nitroanilide; assay type: biochemical, pig; details: for Inhibition of / affinity for DP-IV (in words): N terminus blocked
T1 construct: DP-IV is purified from pig kidney cortex by the method of Barth et al; from tissue; host or cells: pig kidney cortex
Experimental: Briefly, a reaction containing 50 μmol sodium Hepes (pH 7.8), 10 μmol Ala-Pro-p-nitroanilide, 6 milliunits of DP-IV, and 2% (vol/vol) dimethylformamide in a total volume of 1.0 ml. The reaction was initiated by the addition of enzyme and reaction rates were measured at 25° C.
Th rates of DP-IV-catalyzed hydrolysis of Ala-Pro-p-nitroanilide were determined at 3 to 5 different concentration of Ala-boroPro Pro-boroPro, boroPro and N-Boc-Ala-boroPro.

[3] = biological target: T2, DP-IV from human placenta (Homo sapiens, UniProt P27487); assay: DP-IV inhibition, enzyme from human placenta; assay type: biochemical
T2 construct: and from human placenta by the method of Puschel et al; from tissue; host or cells: human placenta
T2 sequence (P27487 whole entry): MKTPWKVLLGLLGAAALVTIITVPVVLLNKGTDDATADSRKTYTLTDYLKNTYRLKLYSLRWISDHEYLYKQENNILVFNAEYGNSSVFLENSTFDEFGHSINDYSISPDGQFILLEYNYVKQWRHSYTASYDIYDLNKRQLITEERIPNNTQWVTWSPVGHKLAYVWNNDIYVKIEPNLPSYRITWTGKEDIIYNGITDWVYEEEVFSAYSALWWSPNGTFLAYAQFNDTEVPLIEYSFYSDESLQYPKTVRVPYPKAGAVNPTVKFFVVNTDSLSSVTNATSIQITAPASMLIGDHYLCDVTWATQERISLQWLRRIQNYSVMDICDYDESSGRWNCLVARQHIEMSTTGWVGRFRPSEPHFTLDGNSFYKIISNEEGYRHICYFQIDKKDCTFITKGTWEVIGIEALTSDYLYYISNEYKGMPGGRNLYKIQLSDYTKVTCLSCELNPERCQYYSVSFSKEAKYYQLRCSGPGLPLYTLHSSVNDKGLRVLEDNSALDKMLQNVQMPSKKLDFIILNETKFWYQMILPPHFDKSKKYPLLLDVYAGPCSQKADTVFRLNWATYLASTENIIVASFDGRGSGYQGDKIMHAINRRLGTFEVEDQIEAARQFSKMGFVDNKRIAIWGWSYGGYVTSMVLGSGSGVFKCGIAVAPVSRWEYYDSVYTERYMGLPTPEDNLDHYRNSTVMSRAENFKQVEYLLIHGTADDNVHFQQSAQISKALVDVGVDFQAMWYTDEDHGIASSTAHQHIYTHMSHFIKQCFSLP

T1 sequence (P22411 whole entry): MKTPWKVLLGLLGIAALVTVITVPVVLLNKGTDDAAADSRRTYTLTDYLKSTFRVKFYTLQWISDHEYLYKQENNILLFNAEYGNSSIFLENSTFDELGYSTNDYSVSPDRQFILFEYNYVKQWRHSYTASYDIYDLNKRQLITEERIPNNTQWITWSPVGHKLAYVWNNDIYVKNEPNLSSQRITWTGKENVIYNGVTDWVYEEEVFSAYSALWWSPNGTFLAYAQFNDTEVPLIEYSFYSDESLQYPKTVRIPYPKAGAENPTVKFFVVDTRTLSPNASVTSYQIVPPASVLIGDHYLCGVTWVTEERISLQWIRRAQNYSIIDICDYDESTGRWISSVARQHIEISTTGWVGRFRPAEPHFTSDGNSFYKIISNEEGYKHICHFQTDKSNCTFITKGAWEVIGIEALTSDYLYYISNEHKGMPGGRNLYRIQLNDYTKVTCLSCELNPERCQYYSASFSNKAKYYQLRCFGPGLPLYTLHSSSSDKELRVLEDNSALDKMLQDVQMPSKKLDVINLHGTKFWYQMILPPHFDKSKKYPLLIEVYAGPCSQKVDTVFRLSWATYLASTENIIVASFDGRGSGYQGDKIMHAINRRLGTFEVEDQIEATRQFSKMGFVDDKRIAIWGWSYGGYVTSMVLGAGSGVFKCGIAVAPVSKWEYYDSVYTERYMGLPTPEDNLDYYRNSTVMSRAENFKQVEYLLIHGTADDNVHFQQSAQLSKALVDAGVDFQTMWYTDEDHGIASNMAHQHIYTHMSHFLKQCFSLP

## C[C@H](N)C(=O)N1CCCC1B(O)O (mixture of isomers) [Ala-boroPro, H-Ala-boroPro]
[1]
  half-life: ~0.5 h
HIV-1-IIIB in A3.5 cells; A3.5 cells infected with HIV-1-IIIB
  Suppression of HIV (p24 antigen): suppresses HIV below detectable levels

## O=C([C@@H]1CCCN1)N1CCCC1B(O)O (mixture of isomers) [Pro-boroPro, H-Pro-boroPro]
[2]
  Ki: 0.003 µM
[2]; pig kidney DP-IV
  Ki for DP-IV (in words): nanomolar range
[2]; relative to H-Ala-boroPro
  Affinity for DP-IV, fold less than that of H-Ala-boroPro: about 10 fold
[3]
  Inhibition of DP-IV from human placenta compared with pig kidney enzyme: equally well
[1]
  half-life: ~1.5 h

## Cc1cn([C@H]2C[C@H](N=[N+]=[N-])[C@@H](CO)O2)c(=O)[nH]c1=O [AZT, zidovudine, reference compound]
HIV-1-IIIB in A3.5 cells; 1 μM, A3.5 cells
  Anti-HIV effect (p24 antigen): anti-HIV effect

## OB(O)C1CCCN1 (stereo not shown) [BoroPro, boroProline]
[2]
  Ki: 110 µM
[2]; relative to Ala-boroPro or Pro-boroPro, Table 1
  Decrease in affinity on going from Ala-boroPro or Pro-boroPro: 10^5–10^6

## CC(NC(=O)OC(C)(C)C)C(=O)N1CCCC1B(O)O (stereo not drawn) [N-Boc-Al-boroPro, N-Boc-Ala-boroPro]
[2]
  Ki: > 1000 µM
  Inhibition of / affinity for DP-IV (in words): abolished inhibition
[2]; listed as Boc-blocked Ala-boroPr
  Inhibition of / affinity for DP-IV (in words): no affinity
